Test system: 653999-131-R-J2-PDC complex spheroids, growth inhibition
Experiment: Anticancer human tumor 653999-131-R-J2-PDC patient-derived lung adenocarcinoma cell line growth inhibition [RAS]
Conditions: for viability, T/C: stronger effect = lower value
In short: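 Tumour cells grown as complex spheroids with HUVEC endothelial cells and mesenchymal stem cells, treated with RAS pathway inhibitor combinations. Each agent spans half-log steps from near clinical Cmax, or 10 microM where Cmax is unknown.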
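Also: spheroids exposed to the agents for seven days before the readout.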

`CCn1c(-c2cc(N3CCN(C)CC3)cnc2C(C)OC)c2c3cc(ccc31)-c1csc(n1)CC(NC(=O)C1CC1C)C(=O)N1CCCC(N1)C(=O)OCC(C)(C)C2` (stereo not drawn) was tested, and the viability, T/C (compound 0.000949 µM) was 80.7% [middle of 7 runs], the viability, T/C (compound 0.003 µM) was 65.2% [middle of 7 runs] and the viability, T/C (compound 0.00949 µM) was 49.8% [middle of 7 runs]. The viability, T/C (compound 0.03 µM) was 37.4% [middle of 7 runs], the viability, T/C (compound 0.0949 µM) was 29.4% [middle of 7 runs] and the viability, T/C (compound 0.3 µM) was 28.6% [middle of 7 runs]. The IC50 (compound alone, run of 08/26/2024) was 8.13 nM [middle of 7 runs].

With `CC(C)n1nc(-c2ccc3oc(N)nc3c2)c2c(N)ncnc21` + C#Cc1c(F)ccc2cc(O)cc(-c3ncc4c(N5CC6CCC(C5)N6)nc(OCC56CCCN5CC(F)C6)nc4c3F)c12 the IC50 (curve of first compound, second compound 0.0316 µM) was 13.6 nM, the IC50 (curve of first compound, second compound 0.1 µM) was 8.56 nM and the IC50 (curve of first compound, second compound 0.316 µM) was 2.52 nM. The IC50 (curve of first compound, second compound 1 µM) was < 0.316 nM, the IC50 (curve of first compound, second compound 3.16 µM) was < 0.316 nM and the IC50 (curve of first compound, second compound 10 µM) was < 0.316 nM. For the same compound, the viability, T/C (second compound 0.0316 µM, first compound 0.000316 µM) was 97.1%, the viability, T/C (second compound 0.0316 µM, first compound 0.001 µM) was 97.5% and the viability, T/C (second compound 0.0316 µM, first compound 0.00316 µM) was 74.1%. The viability, T/C (second compound 0.0316 µM, first compound 0.01 µM) was 57.8%, the viability, T/C (second compound 0.0316 µM, first compound 0.0316 µM) was 34.1% and the viability, T/C (second compound 0.0316 µM, first compound 0.1 µM) was 24.7%. The viability, T/C (second compound 0.1 µM, first compound 0.000316 µM) was 94.5%, the viability, T/C (second compound 0.1 µM, first compound 0.001 µM) was 99.5% and the viability, T/C (second compound 0.1 µM, first compound 0.00316 µM) was 68.3%. For the same compound, the viability, T/C (second compound 0.1 µM, first compound 0.01 µM) was 49%, the viability, T/C (second compound 0.1 µM, first compound 0.0316 µM) was 28.1% and the viability, T/C (second compound 0.1 µM, first compound 0.1 µM) was 21.3%. For the same compound, the viability, T/C (second compound 0.316 µM, first compound 0.000316 µM) was 78%, the viability, T/C (second compound 0.316 µM, first compound 0.001 µM) was 48.8% and the viability, T/C (second compound 0.316 µM, first compound 0.00316 µM) was 57.9%. It also gave a viability, T/C (second compound 0.316 µM, first compound 0.01 µM) of 35.3%, a viability, T/C (second compound 0.316 µM, first compound 0.0316 µM) of 20.2% and a viability, T/C (second compound 0.316 µM, first compound 0.1 µM) of 16.2%. It also gave a viability, T/C (second compound 1 µM, first compound 0.000316 µM) of 42.1%, a viability, T/C (second compound 1 µM, first compound 0.001 µM) of 38.6% and a viability, T/C (second compound 1 µM, first compound 0.00316 µM) of 32.3%. The viability, T/C (second compound 1 µM, first compound 0.01 µM) was 27.1%, the viability, T/C (second compound 1 µM, first compound 0.0316 µM) was 16.1% and the viability, T/C (second compound 1 µM, first compound 0.1 µM) was 10.1%. The viability, T/C (second compound 3.16 µM, first compound 0.000316 µM) was 42%, the viability, T/C (second compound 3.16 µM, first compound 0.001 µM) was 43.8% and the viability, T/C (second compound 3.16 µM, first compound 0.00316 µM) was 24.3%. The viability, T/C (second compound 3.16 µM, first compound 0.01 µM) was 20.1%, the viability, T/C (second compound 3.16 µM, first compound 0.0316 µM) was 10.5% and the viability, T/C (second compound 3.16 µM, first compound 0.1 µM) was 8.31%. It also gave a viability, T/C (second compound 10 µM, first compound 0.000316 µM) of 22.6%, a viability, T/C (second compound 10 µM, first compound 0.001 µM) of 27.4% and a viability, T/C (second compound 10 µM, first compound 0.00316 µM) of 17%. It also gave a viability, T/C (second compound 10 µM, first compound 0.01 µM) of 11.6%, a viability, T/C (second compound 10 µM, first compound 0.0316 µM) of 7.55% and a viability, T/C (second compound 10 µM, first compound 0.1 µM) of 5.84%.

`O=C(c1ccc(F)c(F)c1Nc1ccc(I)cc1F)N1CC(O)([C@@H]2CCCCN2)C1` was tested, and the viability, T/C (compound 0.01 µM) was 77.5% [middle of 4 runs], the viability, T/C (compound 0.1 µM) was 51.2% [middle of 4 runs] and the viability, T/C (compound 0.316 µM) was 28.2% [middle of 4 runs]. For the same compound, the viability, T/C (compound 1 µM) was 11.1% [middle of 4 runs] and the IC50 (curve of compound) was 112 nM [middle of 4 runs].

`CC1(C)CCC(Nc2ncc(C(F)(F)F)c(-c3c[nH]c4c(P(C)(C)=O)c(C#N)ccc34)n2)CN1` (stereo not drawn) was tested, and the viability, T/C (compound 0.000949 µM) was 87.8% [middle of 4 runs], the viability, T/C (compound 0.003 µM) was 75.3% [middle of 4 runs] and the viability, T/C (compound 0.00949 µM) was 72% [middle of 4 runs]. For the same compound, the viability, T/C (compound 0.03 µM) was 71.6% [middle of 4 runs], the viability, T/C (compound 0.0949 µM) was 71.7% [middle of 4 runs] and the viability, T/C (compound 0.3 µM) was 61.9% [middle of 4 runs]. The IC50 (curve of compound) was > 300 nM.

`O=C(c1ccc(F)c(F)c1Nc1ccc(I)cc1F)N1CC(O)([C@@H]2CCCCN2)C1` + CCn1c(-c2cc(N3CCN(C)CC3)cnc2C(C)OC)c2c3cc(ccc31)-c1csc(n1)CC(NC(=O)C1CC1C)C(=O)N1CCCC(N1)C(=O)OCC(C)(C)C2 gave an IC50 (curve of first compound, second compound 0.000949 µM) of 43.1 nM, an IC50 (curve of first compound, second compound 0.003 µM) of 18 nM and an IC50 (curve of first compound, second compound 0.00949 µM) of 7.57 nM. The IC50 (curve of first compound, second compound 0.03 µM) was < 3.16 nM, the IC50 (curve of first compound, second compound 0.0949 µM) was < 3.16 nM and the IC50 (curve of first compound, second compound 0.3 µM) was < 3.16 nM. For the same compound, the viability, T/C (second compound 0.000949 µM, first compound 0.00316 µM) was 77.8%, the viability, T/C (second compound 0.000949 µM, first compound 0.01 µM) was 73.4% and the viability, T/C (second compound 0.000949 µM, first compound 0.0316 µM) was 48.3%. For the same compound, the viability, T/C (second compound 0.000949 µM, first compound 0.1 µM) was 43.1%, the viability, T/C (second compound 0.000949 µM, first compound 0.316 µM) was 14.6% and the viability, T/C (second compound 0.000949 µM, first compound 1 µM) was 4.82%. For the same compound, the viability, T/C (second compound 0.003 µM, first compound 0.00316 µM) was 52.7%, the viability, T/C (second compound 0.003 µM, first compound 0.01 µM) was 54% and the viability, T/C (second compound 0.003 µM, first compound 0.0316 µM) was 45.5%. It also gave a viability, T/C (second compound 0.003 µM, first compound 0.1 µM) of 34.8%, a viability, T/C (second compound 0.003 µM, first compound 0.316 µM) of 12% and a viability, T/C (second compound 0.003 µM, first compound 1 µM) of 4.41%. It also gave a viability, T/C (second compound 0.00949 µM, first compound 0.00316 µM) of 52.2%, a viability, T/C (second compound 0.00949 µM, first compound 0.01 µM) of 50.2% and a viability, T/C (second compound 0.00949 µM, first compound 0.0316 µM) of 34.1%. It also gave a viability, T/C (second compound 0.00949 µM, first compound 0.1 µM) of 14.4%, a viability, T/C (second compound 0.00949 µM, first compound 0.316 µM) of 7.76% and a viability, T/C (second compound 0.00949 µM, first compound 1 µM) of 3.12%. The viability, T/C (second compound 0.03 µM, first compound 0.00316 µM) was 26.6%, the viability, T/C (second compound 0.03 µM, first compound 0.01 µM) was 16.9% and the viability, T/C (second compound 0.03 µM, first compound 0.0316 µM) was 15.1%. It also gave a viability, T/C (second compound 0.03 µM, first compound 0.1 µM) of 9.74%, a viability, T/C (second compound 0.03 µM, first compound 0.316 µM) of 4.27% and a viability, T/C (second compound 0.03 µM, first compound 1 µM) of 3.44%. For the same compound, the viability, T/C (second compound 0.0949 µM, first compound 0.00316 µM) was 19.7%, the viability, T/C (second compound 0.0949 µM, first compound 0.01 µM) was 16.8% and the viability, T/C (second compound 0.0949 µM, first compound 0.0316 µM) was 12.1%. The viability, T/C (second compound 0.0949 µM, first compound 0.1 µM) was 5.71%, the viability, T/C (second compound 0.0949 µM, first compound 0.316 µM) was 3.46% and the viability, T/C (second compound 0.0949 µM, first compound 1 µM) was 2.86%. The viability, T/C (second compound 0.3 µM, first compound 0.00316 µM) was 15.9%, the viability, T/C (second compound 0.3 µM, first compound 0.01 µM) was 15% and the viability, T/C (second compound 0.3 µM, first compound 0.0316 µM) was 10.6%. The viability, T/C (second compound 0.3 µM, first compound 0.1 µM) was 4.53%, the viability, T/C (second compound 0.3 µM, first compound 0.316 µM) was 4.09% and the viability, T/C (second compound 0.3 µM, first compound 1 µM) was 1.86%.

Source: PubChem BioAssay AID2060886 (Molecular Pharmacology Branch, DTP, NCI, 2025)
